Measured values as given in ChEMBL document CHEMBL3351779, “New tetracyclic tacrine analogs containing pyrano[2,3-c]pyrazole: efficient synthesis, biological assessment and docking simulation study” (Eur J Med Chem, 2015).

Experiments:
[1] = target: Cholinesterase (Equus caballus, UniProt P81908)
Description: Inhibition of equine serum BuChE using butylthiocholine iodide as substrate preincubated for 10 mins followed by substrate addition by Ellman's method

[2] = Neuroprotective activity against H2O2-induced cell death in rat PC12 cells assessed as cell viability at 10 uM after 24 hrs by MTT assay relative to control; assay type: functional; settings: PC-12, 24 h, read-out: Activity
[3] = target: T1, Acetylcholinesterase (Electrophorus electricus, UniProt O42275)
Description: Inhibition of electric eel AChE using acetylthiocholine iodide as substrate preincubated for 10 mins followed by substrate addition by Ellman's method

[4] = target: T1, Acetylcholinesterase; test: Inhibition of electric eel AChE by Lineweaver-Burk plot

T1 sequence (O42275 whole entry): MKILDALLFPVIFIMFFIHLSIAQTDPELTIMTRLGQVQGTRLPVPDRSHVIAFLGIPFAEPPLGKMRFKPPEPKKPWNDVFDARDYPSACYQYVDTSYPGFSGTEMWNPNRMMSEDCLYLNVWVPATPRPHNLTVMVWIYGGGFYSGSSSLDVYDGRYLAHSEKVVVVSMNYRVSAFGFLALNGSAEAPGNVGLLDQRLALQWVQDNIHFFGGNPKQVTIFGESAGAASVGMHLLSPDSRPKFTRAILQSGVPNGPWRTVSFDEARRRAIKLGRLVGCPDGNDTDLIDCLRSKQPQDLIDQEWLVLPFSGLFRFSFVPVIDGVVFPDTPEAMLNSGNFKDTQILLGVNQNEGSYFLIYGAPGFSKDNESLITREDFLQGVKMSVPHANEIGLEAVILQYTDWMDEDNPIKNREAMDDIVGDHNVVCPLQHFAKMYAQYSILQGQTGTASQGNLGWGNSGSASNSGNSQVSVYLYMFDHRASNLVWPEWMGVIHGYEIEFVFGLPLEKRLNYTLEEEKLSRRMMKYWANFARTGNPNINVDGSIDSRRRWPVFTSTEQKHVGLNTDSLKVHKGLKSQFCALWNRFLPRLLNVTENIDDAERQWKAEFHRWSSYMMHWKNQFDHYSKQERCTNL
Cholinesterase, sequence (P81908 whole entry): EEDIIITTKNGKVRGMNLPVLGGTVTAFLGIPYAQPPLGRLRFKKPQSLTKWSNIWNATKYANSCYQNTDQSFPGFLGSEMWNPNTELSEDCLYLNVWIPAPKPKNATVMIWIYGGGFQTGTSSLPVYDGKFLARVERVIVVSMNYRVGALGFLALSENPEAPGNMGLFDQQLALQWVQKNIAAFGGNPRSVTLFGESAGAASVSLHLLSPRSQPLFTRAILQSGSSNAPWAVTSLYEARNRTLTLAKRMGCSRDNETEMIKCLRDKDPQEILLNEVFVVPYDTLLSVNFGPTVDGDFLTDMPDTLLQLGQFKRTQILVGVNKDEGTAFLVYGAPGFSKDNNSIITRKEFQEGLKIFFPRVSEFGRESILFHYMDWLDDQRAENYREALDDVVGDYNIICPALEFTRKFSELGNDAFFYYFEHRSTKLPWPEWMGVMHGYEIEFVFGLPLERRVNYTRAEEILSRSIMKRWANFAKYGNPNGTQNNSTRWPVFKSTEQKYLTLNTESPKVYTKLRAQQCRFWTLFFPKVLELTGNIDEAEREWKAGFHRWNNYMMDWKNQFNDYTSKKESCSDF

SMILES | IC50 [1] | viability at 10 µM [2] | IC50 [3] | Ki [4]
COc1ccc(C2c3c(n[nH]c3C)Oc3nc4c(c(N)c32)CCCC4)cc1OC (racemic) | > 100000 nM | 48.4% | 190 nM | 490 nM
Cc1ccc(C2c3c(n[nH]c3C)Oc3nc4c(c(N)c32)CCCC4)cc1 (racemic) | 4500 nM |  | 750 nM | 
Cc1[nH]nc2c1C(c1ccccc1F)c1c(nc3c(c1N)CCCC3)O2 (racemic) | 33000 nM |  | 590 nM | 
Cc1[nH]nc2c1C(c1ccc(F)cc1)c1c(nc3c(c1N)CCCC3)O2 (racemic) | 25000 nM |  | 810 nM | 
Cc1[nH]nc2c1C(c1cccc([N+](=O)[O-])c1)c1c(nc3c(c1N)CCCC3)O2 (racemic) | > 100000 nM |  | 3270 nM | 
COc1ccc(C2c3c(n[nH]c3C)Oc3nc4c(c(N)c32)CCCC4)cc1 (racemic) | > 100000 nM |  | 310 nM | 
COc1ccccc1C1c2c(n[nH]c2C)Oc2nc3c(c(N)c21)CCCC3 (racemic) | > 100000 nM |  | > 10000 nM | 
COc1ccc(OC)c(C2c3c(n[nH]c3C)Oc3nc4c(c(N)c32)CCCC4)c1 (racemic) | > 100000 nM |  | 500 nM | 
COc1cc(C2c3c(n[nH]c3C)Oc3nc4c(c(N)c32)CCCC4)cc(OC)c1OC (racemic) | > 100000 nM |  | 2180 nM | 
Cc1[nH]nc2c1C(c1cccc(Cl)c1Cl)c1c(nc3c(c1N)CCCC3)O2 (racemic) | > 100000 nM |  | 870 nM | 
Cc1[nH]nc2c1C(c1cccc3ccccc13)c1c(nc3c(c1N)CCCC3)O2 (racemic) | 15000 nM |  | 320 nM | 
Cc1[nH]nc2c1C(c1cccs1)c1c(nc3c(c1N)CCCC3)O2 (racemic) | 16000 nM |  | 720 nM | 
O=c1c(O)c(-c2ccc(O)c(O)c2)oc2cc(O)cc(O)c12 [QUERCETIN] |  | 51.6% |  | 
